Reference: publication PMC3914206

How the values were obtained:
Assay in all cases: KiNativ chemical proteomics profiling in HeLa and PC3 cell lysates
[1] = molecular target: T1, selected panels of kinases in HeLa and PC3 cell lysates (Homo sapiens, UniProt P19525); format: binding; conditions: 10 uM, PKR, peptide DLk[…], labeling site Lys2
T1 construct: endogenous in cells; host or cells: HeLa and PC3 cell lysates

[2] = molecular target: T2, selected panels of kinases in HeLa and PC3 cell lysates (Homo sapiens, UniProt Q13188); format: binding; conditions: 10 uM, peptide […]k[…], labeling site Lys1
T2 construct: endogenous in cells; host or cells: HeLa and PC3 cell lysates
T2 sequence (Q13188 1-491): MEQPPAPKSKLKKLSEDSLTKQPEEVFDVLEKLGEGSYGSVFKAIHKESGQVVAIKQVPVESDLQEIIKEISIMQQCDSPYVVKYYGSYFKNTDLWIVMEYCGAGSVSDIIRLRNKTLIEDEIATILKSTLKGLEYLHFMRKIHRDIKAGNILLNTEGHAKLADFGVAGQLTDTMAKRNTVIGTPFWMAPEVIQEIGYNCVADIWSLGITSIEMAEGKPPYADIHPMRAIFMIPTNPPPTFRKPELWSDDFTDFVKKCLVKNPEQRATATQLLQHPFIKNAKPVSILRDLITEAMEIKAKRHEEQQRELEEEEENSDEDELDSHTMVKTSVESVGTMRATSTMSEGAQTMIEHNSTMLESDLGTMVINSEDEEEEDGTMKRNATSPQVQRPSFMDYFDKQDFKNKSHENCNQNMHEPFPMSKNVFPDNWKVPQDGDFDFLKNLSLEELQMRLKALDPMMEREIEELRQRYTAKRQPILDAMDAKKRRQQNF

[3] = molecular target: T3, selected panels of kinases in HeLa and PC3 cell lysates (Homo sapiens, UniProt O94804); format: binding; conditions: 10 uM
T3 construct: endogenous in cells; host or cells: HeLa and PC3 cell lysates
T3 sequence (O94804 whole entry): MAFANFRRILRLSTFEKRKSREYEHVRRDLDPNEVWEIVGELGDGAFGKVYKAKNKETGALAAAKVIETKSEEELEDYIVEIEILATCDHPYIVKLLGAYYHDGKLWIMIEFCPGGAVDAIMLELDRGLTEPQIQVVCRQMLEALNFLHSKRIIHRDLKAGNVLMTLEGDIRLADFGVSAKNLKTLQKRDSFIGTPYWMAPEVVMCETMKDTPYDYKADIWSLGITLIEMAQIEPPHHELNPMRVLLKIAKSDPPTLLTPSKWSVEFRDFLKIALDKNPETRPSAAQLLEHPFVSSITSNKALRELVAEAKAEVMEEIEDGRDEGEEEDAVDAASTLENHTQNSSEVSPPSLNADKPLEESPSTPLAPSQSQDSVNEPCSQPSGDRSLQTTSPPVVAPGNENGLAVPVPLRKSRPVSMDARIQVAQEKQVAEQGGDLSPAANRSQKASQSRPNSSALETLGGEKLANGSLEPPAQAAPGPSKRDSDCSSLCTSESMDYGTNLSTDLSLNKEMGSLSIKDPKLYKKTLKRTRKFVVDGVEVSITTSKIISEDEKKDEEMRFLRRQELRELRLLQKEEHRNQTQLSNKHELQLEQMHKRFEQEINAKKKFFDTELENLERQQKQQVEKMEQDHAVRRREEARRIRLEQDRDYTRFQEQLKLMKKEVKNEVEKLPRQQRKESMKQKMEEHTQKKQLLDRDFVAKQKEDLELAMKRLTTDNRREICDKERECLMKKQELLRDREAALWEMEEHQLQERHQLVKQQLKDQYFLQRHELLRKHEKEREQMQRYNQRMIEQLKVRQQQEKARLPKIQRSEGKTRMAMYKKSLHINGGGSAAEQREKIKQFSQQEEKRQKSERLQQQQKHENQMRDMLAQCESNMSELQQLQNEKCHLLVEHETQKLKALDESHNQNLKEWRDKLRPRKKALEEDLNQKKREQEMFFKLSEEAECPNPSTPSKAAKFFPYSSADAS

[4] = molecular target: T4, selected panels of kinases in HeLa and PC3 cell lysates (Homo sapiens, UniProt Q7RTN6); format: binding; conditions: 10 uM; STLK5; peptide YSVk[…]; proteome HEL; labeling site Activation Loop
T4 construct: endogenous in cells; host or cells: HeLa and PC3 cell lysates

[5] = tested on: selected panels of kinases in HeLa and PC3 cell lysates; format: binding, human; conditions: 10 uM; for % Inhibition PI4KA,PI4KAP2: peptide SGTPMQSAAkAPYLAK, labeling site ATP; for % Inhibiton, MAP3K2,MAP3K3: peptide DIkGANILR; for % Inhibiton, IKKe,TBK1: peptide DIkPGNIMR; for % Inhibiton, JNK1,JNK2,JNK3: peptide DLkPSNIVVK; for % Inhibiton, MAP2K1,MAP2K2: peptide DVkPSNILVNSR
[6] = molecular target: T5, selected panels of kinases in HeLa and PC3 cell lysates (Homo sapiens, UniProt Q00537); format: binding; conditions: 10 uM; PCTAIRE2; peptide DLkPQNLLINEK; proteome HEL; labeling site Lys2
T5 construct: endogenous in cells; host or cells: HeLa and PC3 cell lysates
T5 sequence (Q00537 whole entry): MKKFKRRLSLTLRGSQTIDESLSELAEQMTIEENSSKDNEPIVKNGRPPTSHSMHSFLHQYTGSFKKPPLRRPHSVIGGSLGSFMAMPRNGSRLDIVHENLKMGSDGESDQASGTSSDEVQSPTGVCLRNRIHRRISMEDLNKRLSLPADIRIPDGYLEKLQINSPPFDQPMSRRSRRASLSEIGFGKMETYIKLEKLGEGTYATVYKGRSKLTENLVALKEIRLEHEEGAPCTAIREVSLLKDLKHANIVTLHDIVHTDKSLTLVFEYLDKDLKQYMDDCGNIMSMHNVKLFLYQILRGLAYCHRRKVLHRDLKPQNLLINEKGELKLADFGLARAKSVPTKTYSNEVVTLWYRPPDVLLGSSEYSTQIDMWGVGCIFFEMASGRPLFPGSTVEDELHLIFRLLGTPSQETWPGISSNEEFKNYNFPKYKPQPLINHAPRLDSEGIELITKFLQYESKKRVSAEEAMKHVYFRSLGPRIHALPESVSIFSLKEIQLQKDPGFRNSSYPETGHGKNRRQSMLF

[7] = molecular target: T6, selected panels of kinases in HeLa and PC3 cell lysates (Homo sapiens, UniProt O14936); format: binding; conditions: 10 uM; proteome PC3; peptide ETGQQFAVkIVDVAK; labeling site Lys1
T6 construct: endogenous in cells; host or cells: HeLa and PC3 cell lysates

[8] = molecular target: T7, selected panels of kinases in HeLa and PC3 cell lysates (Homo sapiens, UniProt P16591); format: binding; conditions: 10 uM, peptide TSVAVk[…], labeling site Lys1
T7 construct: endogenous in cells; host or cells: HeLa and PC3 cell lysates
T7 sequence (P16591 whole entry): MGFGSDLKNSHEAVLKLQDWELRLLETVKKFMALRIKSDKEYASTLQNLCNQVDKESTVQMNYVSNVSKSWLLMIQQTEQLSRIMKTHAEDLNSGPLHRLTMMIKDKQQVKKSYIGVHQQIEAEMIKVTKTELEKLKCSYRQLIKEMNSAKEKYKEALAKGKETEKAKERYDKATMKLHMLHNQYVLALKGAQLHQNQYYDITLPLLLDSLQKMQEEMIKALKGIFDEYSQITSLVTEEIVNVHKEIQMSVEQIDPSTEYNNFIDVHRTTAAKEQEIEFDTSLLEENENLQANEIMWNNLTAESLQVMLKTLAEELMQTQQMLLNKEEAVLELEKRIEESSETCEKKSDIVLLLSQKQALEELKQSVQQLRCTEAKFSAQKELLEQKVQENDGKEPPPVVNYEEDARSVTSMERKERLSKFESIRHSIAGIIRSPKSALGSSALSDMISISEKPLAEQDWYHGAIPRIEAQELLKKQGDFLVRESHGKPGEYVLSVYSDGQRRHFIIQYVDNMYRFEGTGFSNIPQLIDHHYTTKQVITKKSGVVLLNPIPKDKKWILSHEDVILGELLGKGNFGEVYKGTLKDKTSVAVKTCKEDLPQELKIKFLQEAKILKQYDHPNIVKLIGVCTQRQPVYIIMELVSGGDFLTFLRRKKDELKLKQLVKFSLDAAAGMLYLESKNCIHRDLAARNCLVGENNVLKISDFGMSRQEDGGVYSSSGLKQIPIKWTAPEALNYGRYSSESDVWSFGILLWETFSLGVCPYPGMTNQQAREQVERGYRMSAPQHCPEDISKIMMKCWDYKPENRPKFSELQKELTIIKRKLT

[9] = molecular target: T8, selected panels of kinases in HeLa and PC3 cell lysates (Homo sapiens, UniProt Q05397); format: binding; conditions: 10 uM; proteome PC3; peptide […]kTCK; labeling site Lys1
T8 construct: endogenous in cells; host or cells: HeLa and PC3 cell lysates

[10] = molecular target: T9, selected panels of kinases in HeLa and PC3 cell lysates (Homo sapiens, UniProt Q13233); format: binding; conditions: 10 uM; proteome HEL; peptide DVk[…]; labeling site Lys2
T9 construct: endogenous in cells; host or cells: HeLa and PC3 cell lysates
T9 sequence (Q13233 whole entry): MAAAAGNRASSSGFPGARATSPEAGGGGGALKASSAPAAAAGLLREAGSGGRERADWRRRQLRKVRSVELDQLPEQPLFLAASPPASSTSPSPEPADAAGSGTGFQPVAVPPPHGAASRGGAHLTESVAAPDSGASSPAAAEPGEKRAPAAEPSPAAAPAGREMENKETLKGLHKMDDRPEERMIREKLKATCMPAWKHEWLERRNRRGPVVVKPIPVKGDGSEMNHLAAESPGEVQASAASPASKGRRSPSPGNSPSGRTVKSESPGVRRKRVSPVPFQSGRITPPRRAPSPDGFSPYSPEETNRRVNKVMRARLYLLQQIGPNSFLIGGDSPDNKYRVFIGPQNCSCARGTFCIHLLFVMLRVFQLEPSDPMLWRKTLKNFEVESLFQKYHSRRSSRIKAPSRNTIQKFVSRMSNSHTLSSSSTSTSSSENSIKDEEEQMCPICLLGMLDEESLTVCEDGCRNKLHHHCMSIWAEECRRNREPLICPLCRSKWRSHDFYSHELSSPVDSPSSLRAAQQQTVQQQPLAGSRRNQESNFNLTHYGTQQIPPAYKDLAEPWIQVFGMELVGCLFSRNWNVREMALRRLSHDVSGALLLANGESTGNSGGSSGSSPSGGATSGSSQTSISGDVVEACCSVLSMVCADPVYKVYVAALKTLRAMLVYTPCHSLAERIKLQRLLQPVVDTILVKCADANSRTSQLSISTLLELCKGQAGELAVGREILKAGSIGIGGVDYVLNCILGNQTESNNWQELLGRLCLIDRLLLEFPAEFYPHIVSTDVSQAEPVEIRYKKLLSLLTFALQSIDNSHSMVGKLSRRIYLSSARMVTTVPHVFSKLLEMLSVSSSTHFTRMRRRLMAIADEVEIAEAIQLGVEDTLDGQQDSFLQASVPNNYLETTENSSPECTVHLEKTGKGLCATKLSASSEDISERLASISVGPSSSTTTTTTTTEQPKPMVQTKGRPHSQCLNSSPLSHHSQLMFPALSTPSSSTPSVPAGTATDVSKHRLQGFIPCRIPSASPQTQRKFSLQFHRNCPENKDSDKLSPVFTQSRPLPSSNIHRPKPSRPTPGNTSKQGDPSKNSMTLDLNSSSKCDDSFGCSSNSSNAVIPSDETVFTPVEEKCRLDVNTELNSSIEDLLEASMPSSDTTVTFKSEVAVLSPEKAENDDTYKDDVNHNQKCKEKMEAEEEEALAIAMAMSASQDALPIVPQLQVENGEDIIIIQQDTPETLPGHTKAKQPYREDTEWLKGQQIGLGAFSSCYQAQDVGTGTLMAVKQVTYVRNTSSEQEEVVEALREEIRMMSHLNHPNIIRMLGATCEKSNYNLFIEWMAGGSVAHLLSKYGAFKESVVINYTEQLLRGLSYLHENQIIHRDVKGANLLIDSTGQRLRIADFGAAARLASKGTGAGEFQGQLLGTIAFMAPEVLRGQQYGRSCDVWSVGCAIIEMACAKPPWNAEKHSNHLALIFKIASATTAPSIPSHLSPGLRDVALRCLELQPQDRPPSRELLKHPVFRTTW

[11] = molecular target: T10, selected panels of kinases in HeLa and PC3 cell lysates (Homo sapiens, UniProt P50750); format: binding; conditions: 10 uM; proteome PC3; peptide DMkAANVLITR; labeling site Lys2
T10 construct: endogenous in cells; host or cells: HeLa and PC3 cell lysates

[12] = molecular target: T11, selected panels of kinases in HeLa and PC3 cell lysates (Homo sapiens, UniProt Q16539); format: binding; conditions: 10 uM
T11 construct: endogenous in cells; host or cells: HeLa and PC3 cell lysates
T11 sequence (Q16539 whole entry): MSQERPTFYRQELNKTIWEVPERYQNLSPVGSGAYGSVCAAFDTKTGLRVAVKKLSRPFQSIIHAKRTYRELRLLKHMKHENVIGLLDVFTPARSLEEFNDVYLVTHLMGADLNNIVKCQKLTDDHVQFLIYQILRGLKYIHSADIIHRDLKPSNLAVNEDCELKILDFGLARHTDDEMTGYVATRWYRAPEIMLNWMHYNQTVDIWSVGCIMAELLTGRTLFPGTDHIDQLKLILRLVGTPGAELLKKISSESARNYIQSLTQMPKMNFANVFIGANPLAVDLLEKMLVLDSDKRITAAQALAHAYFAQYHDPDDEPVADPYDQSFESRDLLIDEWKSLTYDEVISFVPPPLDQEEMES

[13] = proteome HEL, peptide DLk[…], labeling site Lys2
[14] = proteome PC3, peptide DLk[…], labeling site Lys2
[15] = peptide DIk[…], proteome HEL, labeling site Lys2
[16] = peptide DIk[…], proteome PC3, labeling site Lys2
[17] = proteome HEL, labeling site Lys2
[18] = proteome PC3, labeling site Lys2
[19] = proteome PC3, peptide DIk[…], labeling site Lys2

T1 sequence (P19525 whole entry): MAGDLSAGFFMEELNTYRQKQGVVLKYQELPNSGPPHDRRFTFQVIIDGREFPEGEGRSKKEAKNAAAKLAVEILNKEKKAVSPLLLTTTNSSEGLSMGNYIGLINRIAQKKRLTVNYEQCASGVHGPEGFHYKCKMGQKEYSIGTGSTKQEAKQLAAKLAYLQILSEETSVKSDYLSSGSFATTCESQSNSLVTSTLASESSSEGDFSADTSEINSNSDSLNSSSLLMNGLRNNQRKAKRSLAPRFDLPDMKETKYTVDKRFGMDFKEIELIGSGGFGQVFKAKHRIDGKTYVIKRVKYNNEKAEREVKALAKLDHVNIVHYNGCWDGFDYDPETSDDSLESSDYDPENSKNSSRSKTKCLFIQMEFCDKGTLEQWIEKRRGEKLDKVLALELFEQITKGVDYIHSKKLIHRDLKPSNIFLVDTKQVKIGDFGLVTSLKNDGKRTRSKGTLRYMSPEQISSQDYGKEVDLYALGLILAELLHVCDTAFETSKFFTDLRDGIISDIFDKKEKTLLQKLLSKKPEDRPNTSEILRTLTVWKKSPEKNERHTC

CCOc1cc(C(=O)N2CCC(N3CCN(C)CC3)CC2)ccc1Nc1ncc2c(n1)N(C1CCCC1)c1ccccc1C(=O)N2C [Compound 26]
% Inhibition PKR ([1]; proteome HEL): -0.3% | % Inhibition PKR ([1]; proteome PC3): -3.3% | % Inhibiton, MST2 ([2]; proteome HEL): 10.8% | % Inhibiton, MST2 ([2]; proteome PC3): -9.4% | % Inhibiton, LOK [3, 13]: -13% | % Inhibiton, LOK ([3]; proteome HEL, peptide […]kVIETK, labeling site Lys1): 24.4% | % Inhibiton, LOK [3, 14]: 11.4% | % Inhibiton, LOK ([3]; proteome PC3, peptide […]kVIETK, labeling site Lys1): 10% | % Inhibition STLK5 [4]: ~72.8% | % Inhibition PI4KA,PI4KAP2 ([5]; proteome HEL): -4.3% | % Inhibition PI4KA,PI4KAP2 ([5]; proteome PC3): -19.2% | % Inhibition PKCa,PKCb ([5]; PKCa,PKCb, peptide DLk[…], proteome PC3, labeling site Lys2): -2.9% | % Inhibition PKD1,PKD2 ([5]; PKD1,PKD2, peptide NIVHCDLk[…], proteome HEL, labeling site Lys2): 16.4% | % Inhibition ROCK1,ROCK2 ([5]; ROCK1,ROCK2, peptide DVkPDNMLLDK, proteome PC3, labeling site Lys2): -4.8% | % Inhibition RSK1,RSK2 domain1 ([5]; RSK1,RSK2 domain1, peptide DLk[…], proteome HEL, labeling site Lys2): 13.4% | % Inhibition RSK1,RSK4 domain1 ([5]; RSK1,RSK4 domain1, peptide VLGQGSFGkVFLVR, proteome HEL, labeling site ATP Loop): 0.4% | % Inhibition SRPK1,SRPK2 ([5]; SRPK1,SRPK2, peptide FVAMkVVK, proteome PC3, labeling site Lys1): -3.7% | % Inhibition TAO1,TAO3 [5, 15]: -15.8% | % Inhibition TAO1,TAO3 [5, 16]: 1.7% | % Inhibition Wnk1,Wnk2,Wnk3 ([5]; Wnk1,Wnk2,Wnk3, peptide DLk[…], proteome HEL, labeling site Lys2): 1.8% | % Inhibition Wnk1,Wnk2,Wnk4 ([5]; Wnk1,Wnk2,Wnk4, peptide IGDLGLATLkR, proteome PC3, labeling site Activation Loop): -6.2% | % Inhibition ZC1/HGK,ZC2/TNIK,ZC3/MINK [5, 15]: -1.1% | % Inhibition ZC1/HGK,ZC2/TNIK,ZC3/MINK [5, 16]: -12.1% | % Inhibition p70S6K,p70S6Kb ([5]; p70S6K,p70S6Kb, peptide GGYGkVFQVR, proteome PC3, labeling site ATP Loop): -1% | % Inhibiton, MAP3K2,MAP3K3 [5, 17]: -4.4% | % Inhibiton, IKKe,TBK1 [5, 17]: -55% | % Inhibiton, NEK6,NEK7 ([5]; proteome HEL, peptide DIk[…], labeling site Lys2): 6.4% | % Inhibiton, JNK1,JNK2,JNK3 [5, 17]: 14% | % Inhibiton, AMPKa1,AMPKa2 [5, 13]: -22.8% | % Inhibiton, MARK2,MARK3 [5, 13]: -16.8% | % Inhibiton, MAST2,MAST4 [5, 13]: -23.7% | % Inhibiton, p38d,p38g [5, 13]: -11.7% | % Inhibiton, MAP2K1,MAP2K2 [5, 17]: 17.5% | % Inhibiton, MYO3A,MYO3B ([5]; proteome HEL, peptide DVk[…], labeling site Lys2): 11.5% | % Inhibiton, BMX,BTK ([5]; proteome HEL, peptide GQYDVAIkMIK, labeling site Lys1): -22.5% | % Inhibiton, MAP3K5,MAP3K6,MAP3K7 ([5]; proteome HEL, peptide IAIkEIPERDSR, labeling site Lys1): 2% | % Inhibiton, KSR1,KSR2 ([5]; proteome HEL, peptide SkNVFYDNGK, labeling site Protein Kinase Domain): 12.3% | % Inhibiton, AMPKa1,AMPKa2 ([5]; proteome HEL, peptide VAVkILNR, labeling site Lys1): 6% | % Inhibiton, MSK1,MSK2 domain1 ([5]; proteome HEL, peptide VLGTGAYGkVFLVR, labeling site ATP Loop): 7.4% | % Inhibiton, ABL,ARG ([5]; proteome HEL, peptide […]kFPIK, labeling site Activation Loop): -6.4% | % Inhibiton, MAP3K2,MAP3K3 [5, 18]: 5.5% | % Inhibiton, IKKe,TBK1 [5, 18]: -4.6% | % Inhibiton, MST1,MST2 [5, 19]: -5.4% | % Inhibiton, MST4,YSK1 [5, 19]: 0.5% | % Inhibiton, NEK6,NEK7 [5, 19]: -4.6% | % Inhibiton, CaMK2a,CaMK2b,CaMK2d,CaMK2g ([5]; proteome PC3, peptide DLkPENLLLASK, labeling site Lys2): -3.7% | % Inhibiton, JNK1,JNK2,JNK3 [5, 18]: 12.2% | % Inhibiton, AMPKa1,AMPKa2 [5, 14]: 12.1% | % Inhibiton, CDK11,CDK8 [5, 14]: 7.9% | % Inhibiton, MARK2,MARK3 [5, 14]: 3.7% | % Inhibiton, p38d,p38g [5, 14]: 8.3% | % Inhibiton, MAP2K1,MAP2K2 [5, 18]: 7.9% | % Inhibiton, CK1d,CK1e ([5]; proteome PC3, peptide DVk[…], labeling site Lys2): 13% | % Inhibiton, MARK3,MARK4 ([5]; proteome PC3, peptide EVAIkIIDK, labeling site Lys1): 0.6% | % Inhibiton, FYN,SRC,YES ([5]; proteome PC3, peptide QGAk[…], labeling site Activation Loop): 5.5% | % Inhibiton, AMPKa1,AMPKa2 ([5]; proteome PC3, peptide VAVkILNR, labeling site Lys1): 6.9% | % Inhibition PCTAIRE2 [6]: 1.4% | % Inhibiton, CASK [7]: -36.1% | % Inhibiton, FER ([8]; proteome HEL): 24.7% | % Inhibiton, FER ([8]; proteome PC3): 12% | % Inhibiton, FAK [9]: 48.4% | % Inhibiton, MAP3K1 [10]: 2.2% | % Inhibiton, CDK9 [11]: 0.7% | % Inhibiton, p38a [12, 13]: -7.3% | % Inhibiton, p38a ([12]; proteome HEL, peptide QELNkTIWEVPER, labeling site Other): 55% | % Inhibiton, p38a [12, 14]: 4.6% | % Inhibiton, p38a ([12]; proteome PC3, peptide QELNkTIWEVPER, labeling site Other): -19%
